Results: patent US20130184338A1, “PHENYLPROPYL CARBAMATE DERIVATIVES FOR USE IN PREVENTING OR TREATING MULTIPLE SCLEROSIS” (Bio-Pharm Solutions Co., Ltd., priority 2011, published 2013)
Marks after values point to notes of the source that are not given here.

How the values were obtained:
[1] = test system: male mice (ICR); experiment: Muscle relaxation: endurance time on rotarod rotating at accelerated speed; assay type: in vivo; conditions: Mus musculus, ip; intraperitoneal, at time of maximum effect; 50% of activity vs vehicle only; read-out: MR test ED50, I = Acc. Rotarod
Protocol: (§1) For testing, male mice (ICR) were purchased from ORIENT BIO INC. (Korea), divided into several groups with 6 mice in each group, and were adapted for 4-5 days. The mice having the weight ranging from 19 g to 26 g were employed for the test. The pharmacological effect of the test compounds on muscle relaxation was evaluated by Rotarod test, grip strength test, and muscular force (wire hang) test. All mice were adapted to the test environment at one hour before starting the tests. The pharmacological effects of all the test compounds were evaluated by administration through peritoneal cavity of the mice (10 ul/g, bw).
At 24 hours before testing, the mice to be tested were preliminarily trained for 5 minutes on a rod rotating at the rate of 6 revolutions per a minute. The pharmacological effect on muscle relaxation of the test compounds were evaluated by observing the mice on a rod for 5 minutes, where the rod was accelerated from 4 to 40 revolutions per a minute during the test time. The endurance time that each mouse endures on the acceleratedly rotated rod without falling off from the rod was recorded. As test time for evaluation, a maximum of 5 minutes was applied. […] This experimentation was conducted according to the method described in the reference, ‘Monville et al. (2006) Comparison of incremental and accelerating protocol of the rotarod test for the assessment of motor deficits in the 6-OHDA model. J. Neurosci. Meth. 158: 219-223’.
(§2) The results of muscle relaxation activity of the phenyl carbamate compounds measured in above Experimental Examples 11.2 to 11.5 are shown in following Table 5.

[2] = test system: male mice (ICR); experiment: Muscle relaxation: residence time on rotarod rotating at fixed speed (15 r.p.m.); assay type: in vivo; conditions: Mus musculus, ip, read-out: MR test ED50, II = Fixed 15 r.p.m. Rotarod
[3] = test system: male mice (ICR); experiment: Muscle relaxation: grip strength; assay type: in vivo; conditions: intraperitoneal; for ED50: Mus musculus, ip, at time of maximum effect, 50% of activity vs vehicle only, read-out: MR test ED50, III = Grip strength
Protocol: as §1
A grip strength test using the test animals' forelimbs was performed using an instrument equipped with triangle ring and designed so as to easily grip with the forelimbs of experimental animals, manufactured from Ugo Basile Inc. (Ugo Basile, Model47106, Italy). The test was conducted before and after administration of the compounds to evaluate the effects thereof. […] The mouse was made to grip the rod with its forelimbs, and its tail was pulled, where the force at which the mouse detached from the rod was recorded. The instrument indicated the force in grams. All of the mice were given […] for test, and the 3 highest values among the test opportunities were selected and the mean value was used as the test result. This experimentation was conducted according to the method described in the reference, ‘Nevins et al. (1993) Quantitative grip strength assessment as a means of evaluating muscle relaxation in mice. Psychopharmacol. 110: 92-96’.
as §2

[4] = test system: male mice (ICR); experiment: Muscle relaxation: wire hang; assay type: in vivo; conditions: intraperitoneal; for ED50: Mus musculus, at time of maximum effect, 50% of activity vs vehicle only, read-out: MR test ED50, IV = Wire hang; for IV = Wire hang, effect (%) compared to control treated with vehicle only: concentration administered 100 mg/kg
Protocol: as §1
This experimentation was conducted using a metal wire of 30 cm in length, which was suspended between two pillars at a height of about 40 cm from the bottom covered with a soft pad. […] Each mouse was made to grip the wire using two forelimbs, and the elapse time before the mouse fell off from the wire to the pad on the bottom was recorded in seconds. Each mouse was given 5 opportunities for this test at an interval of 2 minutes period. The highest 3 records among the test opportunities were selected and the mean value was used as the test result. This experimentation was conducted according to the method described in the reference, ‘Jacqueline N. Crawley (1999) Behavioral phenotyping of transgenic and knockout mice: experimental design and evaluation of general health, sensory functions, motor abilities, and specific behavioral tests. Brain Res. 835: 18-26’.
as §2

[5] = test system: male ICR mice; experiment: MES (Maximal Electroshock Seizure) test in mice; conditions: Mus musculus, po; for ED50: read-out: MES test (po) ED50
[6] = intraperitoneal, at time of maximum effect, 50% of activity vs vehicle only
[7] = read-out: MES test (po) Protection %

SMILES | ED50 [1] [mg/kg] | ED50 [2, 6] [mg/kg] | ED50 [3] [mg/kg] | ED50 [4] [mg/kg] | other results
CC(OC(N)=O)C(O)c1ccccc1Cl (racemic) [Compound 3, 1-(2-chlorophenyl)-1-hydroxypropyl-2-carbamate] | 57.1 | 47.7 | 72.6 | 34 | ED50 [5]: 31.4 mg/kg
CCC(OC(N)=O)C(O)c1ccccc1Cl (racemic) [Compound 8, 1-(2-chlorophenyl)-1-hydroxybutyl-2-carbamate] | 50.6 | – | 69.5 | – | –
CC(C)C(OC(N)=O)C(O)c1ccccc1Cl (racemic) [Compound 11, 1-(2-chlorophenyl)-1-hydroxy-3-methyl-butyl-2-carbamate] | 102 | – | 126 | – | –
CNC(=O)OC(C)C(O)c1ccccc1Cl (racemic) [Compound 29, 1-(2-chlorophenyl)-1-hydroxypropyl-2-N-methylcarbamate] | 30.2 | 41 | 46 | 38 | responders at 200 mg/kg [5, 7]: 75%
CCCNC(=O)OC(C)C(O)c1ccccc1Cl (racemic) [Compound 30, 1-(2-chlorophenyl)-1-hydroxypropyl-2-N-propylcarbamate] | – | – | 65.4 | 31.7 | responders at 200 mg/kg [5, 7]: 25%
CC(C)NC(=O)OC(C)C(O)c1ccccc1Cl (racemic) [Compound 31, 1-(2-chlorophenyl)-1-hydroxypropyl-2-N-isopropylcarbamate] | – | – | 50.4 | 52.1 | responders at 200 mg/kg [5, 7]: 25%
CC(OC(=O)NC1CC1)C(O)c1ccccc1Cl (racemic) [Compound 32, 1-(2-chlorophenyl)-1-hydroxypropyl-2-N-cyclopropylcarbamate] | – | – | 45.2 | 36.6 | responders at 200 mg/kg [5, 7]: 100%
CC(OC(=O)NC1CCCCC1)C(O)c1ccccc1Cl (racemic) [Compound 33, 1-(2-chlorophenyl)-1-hydroxypropyl-2-N-cyclohexylcarbamate] | – | – | – | 74.6 | –
C[C@@H](OC(=O)NC1CC1)[C@H](O)c1ccccc1Cl (single isomer, unassigned) [Compound 25] | 30 | 18.3 | 46.1 | 32.9 | responders at 200 mg/kg [5, 7]: 25%
C[C@@H](OC(N)=O)[C@H](O)c1ccccc1Cl [Compound 2, 1-(2-chlorophenyl)-(R)-1-hydroxypropyl-(R)-2-carbamate] | 66.3 | 76.5 | 110 | 43.3 | ED50 [5]: 51 mg/kg
C[C@@H](OC(N)=O)[C@@H](O)c1ccccc1Cl [Compound 4, 1-(2-chlorophenyl)-(S)-1-hydroxypropyl-(R)-2-carbamate] | 69.3 | 65 | 124 | 40 | ED50 [5]: 82.4 mg/kg
C[C@H](OC(N)=O)[C@H](O)c1ccccc1Cl [Compound 5, 1-(2-chlorophenyl)-(R)-1-hydroxypropyl-(S)-2-carbamate] | 66.9 | 65.5 | 95 | 52.5 | ED50 [5]: 84.1 mg/kg
CC[C@H](OC(N)=O)[C@@H](O)c1ccccc1Cl [Compound 6, 1-(2-chlorophenyl)-(S)-1-hydroxybutyl-(S)-2-carbamate] | – | – | 70.7 | – | –
CC[C@@H](OC(N)=O)[C@H](O)c1ccccc1Cl [Compound 7, 1-(2-chlorophenyl)-(R)-1-hydroxybtyl-(R)-2-carbamate] | – | – | 248 | – | –
CC(C)[C@H](OC(N)=O)[C@@H](O)c1ccccc1Cl [Compound 9, 1-(2-chlorophenyl)-(S)-1-hydroxy-3-methyl-butyl-(S)-2-carbamate] | – | – | 104 | – | –
CNC(=O)O[C@@H](C)[C@@H](O)c1ccccc1Cl [Compound 15, 1-(2-chlorophenyl)-(S)-1-hydroxypropyl-(S)-2-N-methylcarbamate] | 51.4 | 42.8 | 83.6 | 25.4 | responders at 100 mg/kg [5, 7]: 75%
CCCNC(=O)O[C@@H](C)[C@@H](O)c1ccccc1Cl [Compound 16, 1-(2-chlorophenyl)-(S)-1-hydroxypropyl-(S)-2-N-propylcarbamate] | 48.7 | 61.6 | 67.8 | 16.1 | responders at 200 mg/kg [5, 7]: 25%
CC(C)NC(=O)O[C@@H](C)[C@@H](O)c1ccccc1Cl [Compound 17, 1-(2-chlorophenyl)-(S)-1-hydroxypropyl-(R)-2-N-isopropylcarbamate] | 73.1 | 66.4 | 91.5 | 41.4 | –
C[C@H](OC(=O)NC1CCCCC1)[C@@H](O)c1ccccc1Cl [Compound 19, 1-(2-chlorophenyl)-(S)-1-hydroxypropyl-(R)-2-N-cyclohexyl carbamate] | 95.3 | – | 110 | 28.5 | –
CNC(=O)O[C@H](C)[C@H](O)c1ccccc1Cl [Compound 22, 1-(2-chlorophenyl)-(R)-1-hydroxypropyl-(R)-2-N-methylcarbamate] | 25.7 | 25.1 | 28.3 | 22.4 | –
CCCNC(=O)O[C@H](C)[C@H](O)c1ccccc1Cl [Compound 23, 1-(2-chlorophenyl)-(R)-1-hydroxypropyl-(R)-2-N-propylcarbamate] | – | – | 73.8 | 46 | responders at 200 mg/kg [5, 7]: 25%
CC(C)NC(=O)O[C@H](C)[C@H](O)c1ccccc1Cl [Compound 24, 1-(2-chlorophenyl)-(R)-1-hydroxypropyl-(R)-2-N-isopropylcarbamate] | 38.6 | 44.3 | 48.8 | 17.8 | –
C[C@@H](OC(=O)NC1CCCCC1)[C@H](O)c1ccccc1Cl [Compound 26, 1-(2-chlorophenyl)-(R)-1-hydroxypropyl-(R)-2-N-cyclohexyl carbamate] | – | – | – | 63.8 | –
C[C@@H](OC(N)=O)[C@H](O)c1ccc(Cl)cc1Cl [Compound 45, 1-(2,4-dichlorophenyl)-(R)-1-hydroxypropyl-(R)-2-carbamate] | – | – | – | – | responders at 200 mg/kg [5, 7]: 0%
C[C@H](OC(N)=O)[C@@H](O)c1ccccc1F [Compound 63, 1-(2-fluorophenyl)-(S)-1-hydroxypropyl-(S)-2-carbamate] | – | – | 118 | – | IV = Wire hang, effect (%) compared to control treated with vehicle only [4]: 100^a (84.2%)
C[C@@H](OC(N)=O)[C@H](O)c1ccccc1F [Compound 64, 1-(2-fluorophenyl)-(R)-1-hydroxypropyl-(R)-2-carbamate] | – | – | – | – | III = Grip strength, effect (%) compared to control treated with vehicle only ([3]; concentration administered 120 mg/kg): 120^a (35.4%); IV = Wire hang, effect (%) compared to control treated with vehicle only [4]: 100^a (30.8%)
C[C@H](OC(N)=O)[C@@H](O)c1ccccc1I [Compound 65, 1-(2-iodophenyl)-(S)-1-hydroxypropyl-(S)-2-carbamate] | – | – | 42.9 | 23.4 | ED50 [2]: 28 mg/kg
C[C@@H](OC(N)=O)[C@H](O)c1ccccc1I [Compound 66, 1-(2-iodophenyl)-(R)-1-hydroxypropyl-(R)-2-carbamate] | – | – | 46 | 76.3 | ED50 [2]: 67.9 mg/kg
CC[C@H](OC(N)=O)[C@@H](O)c1ccccc1I [Compound 67, 1-(2-iodophenyl)-(S)-1-hydroxybutyl-(S)-2-carbamate] | – | – | 69.1 | 26.2 | ED50 [2]: 30.2 mg/kg
